# Laboratory results taken from publication PMC7568863 (Chemical biology & drug design, 2020).
# What was measured:
# [1] = tested on: SKMEL28 melanoma cell line; assay: Cell apoptosis assay; format: cell-based; details: IncuCyte Cytotox Green, Total Green Object Integrated Intensity; 30 h post-treatment; triplicates; preliminary assay
# Bfl-1 = details: ref Barile et al., 2017; cited from earlier work
smiles,measurement,setting,value
CC1(C)CCC(CN2CCN(c3ccc(C(=O)NS(=O)(=O)c4ccc(NCC5CCOCC5)c([N+](=O)[O-])c4)c(Oc4cnc5[nH]ccc5c4)c3)CC2)=C(c2ccc(Cl)cc2)C1 [ABT199],Induction of apoptosis / cell death in SKMEL28 cells,[1],inactive at the concentrations tested
same,Activity against Bfl-1,Bfl-1,inactive against Bfl-1
